Legend:
[1] = tested on: OVCAR3 cells; assay: Cell proliferation activity test, OVCAR3 (CyQUANT Direct); type: cell-based; conditions: Homo sapiens, OVCAR-3, 72 h, 3 days incubation, CyQUANT fluorescence detection, read-out: OVCAR-3 Cell Viability_IC50_nM
How it was run: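 OVCAR3 cells seeded overnight, then exposed to compounds at 0-10 μM final (0.20% DMSO) for 3 days at 37° C. Cell number read by CyQUANT Direct fluorescence after 60 min at 37° C.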

[2] = target: T1, Human KIF18A (amino acid sequence 1-417) (Homo sapiens, UniProt Q8NI77); assay: Enzyme activity detection experiment (ADP-Glo, KIF18A with tubulin and ATP); type: biochemical; conditions: tubulin 60 μg/mL, ATP 25 μM, KIF18A protein 2.5 nM, 120 minutes at ambient temperature, ADP-Glo chemiluminescence
T1 construct: purchased Viva Biotech (Shanghai) Ltd
How it was run: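 KIF18A (2.5 nM) was incubated with tubulin (60 μg/mL as added), ATP (25 μM) and serially diluted compound for 120 min at ambient temperature. ADP formed was detected by ADP-Glo: reagent for 30 min, then detection reagent for 30 min in the dark, with chemiluminescence read-out.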

[3] = tested on: HT29 cells; assay: CyQuant cell proliferation activity test, HT29; type: cell-based; conditions: Homo sapiens, HT-29, 72 h, HT29 2000 cells per well, 3 days incubation, initial concentration 3000 nM, IC50 by XLFIT, read-out: HT-29 Cell Viability_IC50_nM
Procedure: Materials and Cells: HT29 cells were purchased from Nanjing Cobioer Biosciences Co., Ltd.; RPM-1640 medium, fetal bovine serum, Trypsin-EDTA (0.25%), DMSO, 96-well plates, and CyQuant reagents were purchased from ThermoFisher (USA).
Cell Culture: Culture HT29 cells with RPMI-1640 containing 10% fetal bovine serum under the condition of 37° C. and 5% CO2. Only cells in the logarithmic growth phase can be used for the test.
Cell Proliferation Activity Test: Use the CyQuant reagent to detect the proliferation inhibitory activity of compounds on HT29 cells. Adjust the cell density and inoculate 100 μL per well into the 96-well plate (HT29 at 2000 cells per well), then incubate overnight under the condition of 37° C. and […]. Add compounds of various target concentrations (initial concentration of 3000 nM, 3-fold dilution, 9 concentration gradients), and make the DMSO content 0.20%. Incubate the cell plates at 37° C. and 5% CO2 for 3 days. Incubate with CyQuant reagent for 1 h, read the plate by Envision, and calculate IC50 using XLFIT.

T1 sequence (Q8NI77 1-417): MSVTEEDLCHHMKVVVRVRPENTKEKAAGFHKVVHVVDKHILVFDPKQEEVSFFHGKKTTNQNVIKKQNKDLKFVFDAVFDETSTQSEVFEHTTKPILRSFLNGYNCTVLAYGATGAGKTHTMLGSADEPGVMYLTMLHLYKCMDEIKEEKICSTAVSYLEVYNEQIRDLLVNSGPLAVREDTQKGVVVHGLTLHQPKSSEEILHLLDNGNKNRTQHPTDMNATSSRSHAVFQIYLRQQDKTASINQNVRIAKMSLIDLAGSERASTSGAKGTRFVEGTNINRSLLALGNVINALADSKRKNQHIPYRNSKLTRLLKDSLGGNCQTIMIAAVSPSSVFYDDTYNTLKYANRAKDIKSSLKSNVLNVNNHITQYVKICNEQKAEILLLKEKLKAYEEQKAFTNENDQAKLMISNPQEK
T1 sequence (Q2XVP4 whole entry partner): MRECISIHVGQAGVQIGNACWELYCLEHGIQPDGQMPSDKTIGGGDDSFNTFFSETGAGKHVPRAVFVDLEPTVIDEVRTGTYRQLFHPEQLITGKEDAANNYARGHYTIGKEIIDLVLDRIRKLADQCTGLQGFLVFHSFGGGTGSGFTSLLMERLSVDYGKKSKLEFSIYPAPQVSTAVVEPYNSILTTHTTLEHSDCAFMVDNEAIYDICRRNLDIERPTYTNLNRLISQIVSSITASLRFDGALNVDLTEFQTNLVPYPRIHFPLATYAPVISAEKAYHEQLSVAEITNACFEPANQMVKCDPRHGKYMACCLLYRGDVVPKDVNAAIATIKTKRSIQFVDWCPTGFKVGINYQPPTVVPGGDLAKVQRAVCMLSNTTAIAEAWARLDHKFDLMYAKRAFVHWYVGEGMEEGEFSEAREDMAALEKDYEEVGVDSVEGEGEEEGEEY
T1 sequence (P02554 whole entry partner): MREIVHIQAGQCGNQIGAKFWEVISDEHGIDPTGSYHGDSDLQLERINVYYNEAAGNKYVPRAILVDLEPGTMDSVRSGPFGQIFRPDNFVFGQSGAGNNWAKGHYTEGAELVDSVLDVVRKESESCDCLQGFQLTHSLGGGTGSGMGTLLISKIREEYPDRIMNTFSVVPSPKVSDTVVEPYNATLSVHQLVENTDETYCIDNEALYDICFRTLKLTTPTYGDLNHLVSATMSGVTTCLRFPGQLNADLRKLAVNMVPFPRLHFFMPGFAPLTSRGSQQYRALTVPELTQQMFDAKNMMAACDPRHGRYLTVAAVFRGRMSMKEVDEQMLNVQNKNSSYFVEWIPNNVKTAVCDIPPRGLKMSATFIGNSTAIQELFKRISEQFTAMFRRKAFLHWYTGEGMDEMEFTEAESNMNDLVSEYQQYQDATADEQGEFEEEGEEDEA

SMILES | IC50 [1] [nM] | IC50 [2] [nM] | IC50 [3] [nM]
Cc1cc(-c2cn(-c3ccc(NS(=O)(=O)CCO)cc3N3CCC4(CC3)CC4)nn2)nc(N2CCCCC2)n1 [Example 41, 2-hydroxy-N-(4-(4-(6-methyl-2-(piperidin-1-yl)pyrimidin-4-yl)-1H-1,2,3-triazol-1-yl)-3-(6-azaspiro[2.5]octan-6-yl)phenyl)ethanesulfonamide] | 15 | 44 | 14
Cc1cc(-c2cn(-c3ccc(NS(=O)(=O)CCO)cc3N3CCC4(CC3)CC4)nn2)nc(N2CCOCC2)n1 [Example 42, 2-hydroxy-N-(4-(4-(6-methyl-2-morpholinopyrimidin-4-yl)-1H-1,2,3-triazol-1-yl)-3-(6-azaspiro[2.5]octan-6-yl)phenyl)ethanesulfonamide] | 12 | 19 | 15
Cc1cc(-c2cn(-c3ccc(NS(=O)(=O)CCO)cc3N3CCC4(CC3)CC4)nn2)nc(N2CCO[C@@H](C)C2)n1 [Example 43, (S)-2-hydroxy-N-(4-(4-(6-methyl-2-(2-methylmorpholino)pyrimidin-4-yl)-1H-1,2,3-triazol-1-yl)-3-(6-azaspiro[2.5]octan-6-yl)phenyl)ethane-1-sulfonamide] | 16 | 44 | 18
Cc1cc(-c2cn(-c3ccc(NS(=O)(=O)CCO)cc3N3CCC4(CC3)CC4)nn2)nc(N2C[C@@H](C)O[C@@H](C)C2)n1 [Example 44, N-(4-(4-(2-((2R,6S)-2,6-dimethylmorpholino)-6-methylpyrimidin-4-yl)-1H-1,2,3-triazol-1-yl)-3-(6-azaspiro[2.5]octan-6-yl)phenyl)-2-hydroxyethane-1-sulfonamide] | 14 | 22 | 12
Cc1cc(-c2cn(-c3ccc(NS(=O)(=O)CCO)cc3N3CCC4(CC3)CC4)nn2)nc(N2CCOCC2C)n1 (stereo not drawn) [Example 45] | 22 | 88 | 13
Cc1cc(-c2cn(-c3ccc(NS(=O)(=O)CCO)cc3N3CCC4(CC3)CC4)nn2)nc(N2[C@H](C)COC[C@@H]2C)n1 [Example 46, N-(4-(4-(2-((3S,5R)-3,5-dimethylmorpholin)-6-methylpyrimidin-4-yl)-1H-1,2,3-triazol-1-yl)-3-(6-azaspiro[2.5]octan-6-yl)phenyl)2-hydroxyethanesulfonamide] | 14 | 151 | 39
Cc1cc(-c2cn(-c3ccc(NS(=O)(=O)CCO)cc3N3CCC4(CC3)CC4)nn2)nc(N2C3CCC2COC3)n1 [Example 48, N-(4-(4-(2-(3-oxa-8-azabicyclo[3.2.1]octan-8-yl)-6-methylpyrimidin-4-yl)-1H-1,2,3-triazol-1-yl)-3-(6-azaspiro[2.5]octan-6-yl)phenyl)-2-hydroxyethane-1-sulfonamide] | 17 | 22 | 14
Cc1cc(-c2cn(-c3ccc(NS(=O)(=O)CCO)cc3N3CCC4(CC3)CC4)nn2)nc(N2C3COCC2C3)n1 [Example 49, N-(4-(4-(2-(3-oxa-6-azabicyclo[3.1.1]heptan-6-yl)-6-methylpyrimidin-4-yl)-1H-1,2,3-triazol-1-yl)-3-(6-azaspiro[2.5]octan-6-yl)phenyl)-2-hydroxyethane-1-sulfonamide] | 54 | 61 | 31

Now from value to compound:

IC50 [1] [nM] | IC50 [2] [nM] | IC50 [3] [nM] | SMILES
222 | 1050 | 245 | Cc1cc(-c2cn(-c3ccc(NS(=O)(=O)CCO)cc3N3CCC4(CC3)CC4)nn2)nc(N2[C@H](C)CC(F)(F)C[C@@H]2C)n1 [Example 50, N-(4-(4-(2-((2S,6R)-4,4-difluoro-2,6-dimethylpiperidin-1-yl)-6-methylpyrimidin-4-yl)-1H-1,2,3-triazol-1-yl)-3-(6-azaspiro[2.5]octan-6-yl)phenyl)-2-hydroxyethane-1-sulfonamide]
24 | 131 | 22 | COc1cc(-c2cn(-c3ccc(NS(=O)(=O)CCO)cc3N3CCC4(CC3)CC4)nn2)nc(N2CCC(F)(F)CC2)n1 [Example 51, N-(4-(4-(2-(4,4-difluoropiperidin-1-yl)-6-methoxypyrimidin-4-yl)-1H-1,2,3-triazol-1-yl)-3-(6-azaspiro[2.5]octan-6-yl)phenyl)-2-hydroxyethanesulfonamide]
110 | 25 | 299 | O=S(=O)(CCO)Nc1ccc(-n2cc(-c3cc(O)nc(N4CCC(F)(F)CC4)n3)nn2)c(N2CCC3(CC2)CC3)c1 [Example 52, N-(4-(4-(2-(4,4-difluoropiperidin-1-yl)-6-hydroxypyrimidin-4-yl)-1H-1,2,3-triazol-1-yl)-3-(6-azaspiro[2.5]octan-6-yl)phenyl)-2-hydroxyethane-1-sulfonamide]
35 | 296 | 47 | COc1cc(-c2cn(-c3ccc(NS(=O)(=O)CCO)cc3N3CCC4(CC3)CC4)nn2)nc(N2[C@H](C)COC[C@@H]2C)n1 [Example 53, N-(4-(4-(2-((3S,5R)-3,5-dimethylmorpholino)-6-methoxypyrimidin-4-yl)-1H-1,2,3-triazol-1-yl)-3-(6-azaspiro[2.5]octan-6-yl)phenyl)-2-hydroxyethane-1-sulfonamide]
84 | 277 | 73 | CN(C)c1cc(-c2cn(-c3ccc(NS(=O)(=O)CCO)cc3N3CCC4(CC3)CC4)nn2)nc(N2CCC(F)(F)CC2)n1 [Example 54, N-(3-{6-azaspiro[2.5]octan-6-yl}-4-{4-[2-(4,4-difluoropiperidin-1-yl)-6-(dimethylamino)pyrimidin-4-yl]-1H-1,2,3-triazol-1-yl}phenyl)-2-hydroxyethane-1-sulfonamide]
3 | 40 | 3 | Nc1cc(-c2cn(-c3ccc(NS(=O)(=O)CCO)cc3N3CCC4(CC3)CC4)nn2)nc(N2CCC(F)(F)CC2)n1 [Example 55, N-(4-{4-[6-amino-2-(4,4-difluoropiperidin-1-yl)pyrimidin-4-yl]-1H-1,2,3-triazol-1-yl}-3-{6-azaspiro[2.5]octan-6-yl}phenyl)-2-hydroxyethane-1-sulfonamide]
9 | 110 | 8 | CNc1cc(-c2cn(-c3ccc(NS(=O)(=O)CCO)cc3N3CCC4(CC3)CC4)nn2)nc(N2CCC(F)(F)CC2)n1 [Example 56, N-(3-{6-azaspiro[2.5]octan-6-yl}-4-{4-[2-(4,4-difluoropiperidin-1-yl)-6-(methylamino)pyrimidin-4-yl]-1H-1,2,3-triazol-1-yl}phenyl)-2-hydroxyethane-1-sulfonamide]
8 | 72 | 4.5 | O=S(=O)(CCO)Nc1ccc(-n2cc(-c3cc(NCCO)nc(N4CCC(F)(F)CC4)n3)nn2)c(N2CCC3(CC2)CC3)c1 [Example 57, N-(3-{6-azaspiro[2.5]octan-6-yl}-4-{4-[2-(4,4-difluoropiperidin-1-yl)-6-[(2-hydroxyethyl)amino]pyrimidin-4-yl]-1H-1,2,3-triazol-1-yl}phenyl)-2-hydroxyethane-1-sulfonamide]
224 | 779 | 286 | O=S(=O)(CCO)Nc1ccc(-n2cc(-c3cc(NC4CCOCC4)nc(N4CCC(F)(F)CC4)n3)nn2)c(N2CCC3(CC2)CC3)c1 [Example 58, N-(3-{6-azaspiro[2,5]octan-6-yl}-4-{4-[2-(4,4-difluoropiperidin-1-yl)-6-[(oxan-4-yl)amino]pyrimidin-4-yl]-1H-1,2,3-triazol-1-yl}phenyl)-2-hydroxyethane-1-sulfonamide]

— patent US20250304551A1 (SHANGHAI APEIRON THERAPEUTICS COMPANY LIMITED, priority 2022, published 2025)
